Test results: patent US7214682B2, “Substituted 2-pyridinyl-6,7,8,9-tetrahydropyrimido{1,2-a}pyrimidin-4-one and 7-pyridinyl-2,3-dihydroimidazo{1,2-a}pyrimidin-5(1h)one derivatives” (Sanofi-aventis, priority 2001, dated 2007)

Assays:
cdk5/p25 = cdk5/p25 (Homo sapiens, UniProt Q00535); assay: Inhibitory activity against cdk5/p25 (TPK2), 33P-ATP phosphorylation of Histone H1; format: biochemical; conditions: TPK2 = cdk5/p25 (b7); table 4
Experimental: The following protocol may be used: 0.4 mg/ml Histone H1 and 10 μM ATP (containing 300,000 cpm of ^33P-ATP) were incubated in 50 mM Hepes, pH 7.2, 1 mM DTT, 1 mM MgCl2, 1 mM EGTA, 0.02% Tween 20 buffer for 1 hour at room temperature in the presence of cdk5/p25 (total reaction volume: 100 microliters). Inhibitors were solubilized in DMSO (final solvent concentration in the reaction medium, 1%). The reaction was stopped with 100 microliters of a solution of 25 g polyphosphoric acid (85% P2O5), 126 ml 85% H3PO4, H2O to 500 ml (diluted to 1:100 before use). An aliquot of the reaction mixture was then transferred to Whatman P81 cation exchange filters and rinsed with the solution described above. Incorporated ^33P radioactivity was determined by liquid scintillation spectrometry. The cdk5/p25 inhibitory activity of the compounds of the present invention are expressed as IC50 values. Typically, 3-fold serial dilutions of the inhibitor over at least a 1000-fold concentration range are used.

GSK3β = GSK3β (Homo sapiens, UniProt P49841); assay: Inhibitory activity against GSK3β (TPK1), 33P-ATP phosphorylation of GS1 peptide; format: biochemical; conditions: TPK1 = GSK3β (b5); table 4
Experimental: Two different protocols can be used.
In a first protocol: 7.5 μM of prephosphorylated GS1 peptide and 10 μM ATP (containing 300,000 cpm of 33P-ATP) were incubated in 25 mM Tris-HCl, pH 7.5, 0.6 mM DTT, 6 mM MgCl2, 0.6 mM EGTA, 0.05 mg/ml BSA buffer for 1 hour at room temperature in the presence of GSK3β (total reaction volume: 100 microliters).
In a second protocol: 4.1 μM of prephosphorylated GS1 peptide and 42 μM ATP (containing 260,000 cpm 33P-ATP) were incubated in 80 mM Mes-NaOH, pH 6.5, 1 mM Mg acetate, 0.5 mM EGTA, 5 mM 2-mercaptoethanol, 0.02% Tween 20, 10% glycerol buffer for 2 hours at room temperature in the presence of GSK3β.
Inhibitors were solubilized in DMSO (final solvent concentration in the reaction medium, 1%).
The reaction was stopped with 100 microliters of a solution made of 25 g polyphosphoric acid (85% P2O5), 126 ml 85% H3PO4, H2O to 500 ml and then diluted to 1:100 before use. An aliquot of the reaction mixture was then transferred to Whatman P81 cation exchange filters and rinsed with the solution described above. Incorporated 33P radioactivity was determined by liquid scintillation spectrometry.
The phosphorylated GS-1 peptide had the following sequence: NH2-[…](P)EDEE-COOH.
The GSK3β inhibitory activity of the compounds of the present invention are expressed in IC50, and as an illustration the range of IC50's of the compounds in table 1 is between 4 nanomolar to 2 micromolar concentrations, of the compounds in table 2 is between 30 nanomolar to 2 micromolar concentrations and of the compounds in table three is between 1 nanomolar to 2 micromolar.

Chain of cdk5/p25 (Q00535 whole entry, species assumed): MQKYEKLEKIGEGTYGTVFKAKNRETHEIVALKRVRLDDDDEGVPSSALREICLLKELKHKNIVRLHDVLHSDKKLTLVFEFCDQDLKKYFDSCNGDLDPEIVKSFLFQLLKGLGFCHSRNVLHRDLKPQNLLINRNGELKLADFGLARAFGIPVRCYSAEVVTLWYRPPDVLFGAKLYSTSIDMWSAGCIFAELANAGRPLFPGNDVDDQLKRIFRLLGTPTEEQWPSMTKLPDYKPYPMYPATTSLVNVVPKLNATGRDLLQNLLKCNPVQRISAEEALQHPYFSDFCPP
Chain of cdk5/p25 (Q15078 99-307 partner limits assumed, species assumed): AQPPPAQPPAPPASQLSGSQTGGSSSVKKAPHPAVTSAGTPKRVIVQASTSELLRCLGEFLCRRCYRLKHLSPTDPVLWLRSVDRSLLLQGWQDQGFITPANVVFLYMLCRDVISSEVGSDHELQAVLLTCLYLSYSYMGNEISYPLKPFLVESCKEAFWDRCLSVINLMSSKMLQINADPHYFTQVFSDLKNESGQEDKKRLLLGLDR
Chain of GSK3β (P49841 whole entry, species assumed): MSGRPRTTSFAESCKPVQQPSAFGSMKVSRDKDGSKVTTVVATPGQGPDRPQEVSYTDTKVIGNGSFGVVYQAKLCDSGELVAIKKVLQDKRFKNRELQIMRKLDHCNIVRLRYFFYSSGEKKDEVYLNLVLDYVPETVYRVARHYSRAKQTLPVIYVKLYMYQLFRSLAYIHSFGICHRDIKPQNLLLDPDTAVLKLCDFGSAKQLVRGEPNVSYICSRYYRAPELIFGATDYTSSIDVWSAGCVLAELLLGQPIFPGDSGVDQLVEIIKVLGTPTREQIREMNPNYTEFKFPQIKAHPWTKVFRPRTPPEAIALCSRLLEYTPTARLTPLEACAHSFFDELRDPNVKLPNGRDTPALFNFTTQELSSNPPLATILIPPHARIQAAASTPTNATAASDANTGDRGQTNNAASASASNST

Row | SMILES | IC50 (cdk5/p25) [nM] | IC50 (GSK3β) [nM] | melting point [°C]
1 | O=c1c(Cl)c(-c2ccncc2)nc2n1CCCN2C[C@@H](O)c1ccccc1 [Table 1 Compound 42, 9-(2(S)-Hydroxy-2-phenyl-ethyl)-3-chloro-2-(pyridin-4-yl)-6,7,8,9-tetrahydro-4H-pyrimido[1,2-a]pyrimidin-4-one] | 154 | 28 | –
2 | O=C(CN1CCCn2c1nc(-c1ccncc1)c(Cl)c2=O)c1ccccc1 [Table 1 Compound 39, 9-(2-Oxo-2-phenyl-ethyl)-3-chloro-2-(pyridin-4-yl)-6,7,8,9-tetrahydro-4H-pyrimido[1,2-a]pyrimidin-4-one] | 62 | 4 | –
3 | O=C(CN1CCCn2c1nc(-c1ccncc1)c(Br)c2=O)c1ccccc1 [Table 1 Compound 40, 9-(2-Oxo-2-phenyl-ethyl)-3-bromo-2-(pyridin-4-yl)-6,7,8,9-tetrahydro-4H-pyrimido[1,2-a]pyrimidin-4-one] | 77 | 5 | –
4 | O=c1c(F)c(-c2ccncc2)nc2n1CCCN2C[C@@H](O)c1ccccc1 [Table 1 Compound 44, 9-(2(S)-Hydroxy-2-phenyl-ethyl)-3-fluoro-2-(pyridin-4-yl)-6,7,8,9-tetrahydro-4H-pyrimido[1,2-a]pyrimidin-4-one] | > 1000 | 6 | –
5 | O=c1cc(-c2ccncc2)nc2n1CC(F)(F)CN2C[C@@H](O)c1ccccc1 [Table 1 Compound 5, 9-(2(S)-Hydroxy-2-phenyl-ethyl)-7,7-difluoro-2-(pyridin4-yl)-6,7,8,9-tetrahydro-4H-pyrimido[1,2-a]pyrimidin-4-one] | 67 | 60 | –
6 | O=C(CN1CCCn2c1nc(-c1ccncc1)c(F)c2=O)c1cccc(F)c1 [Table 1 Compound 37, 9-[2-Oxo-2-(3-fluorophenyl)-ethyl]-3-fluoro-2-(pyridin-4-yl)-6,7,8,9-tetrahydro-4H-pyrimido[1,2-a]pyrimidin-4-one] | 4600 | 4 | –
7 | CC1(C)CN(C[C@@H](O)c2ccccc2)c2nc(-c3ccncc3)c(F)c(=O)n2C1 [Table 1 Compound 12, 9-(2(S)-Hydroxy-2-phenyl-ethyl)-3-fluoro-7,7-dimethyl-2-(pyridin-4-yl)-6,7,8,9-tetrahydro-4H-pyrimido[1,2-a]pyrimidin-4-one] | 334 | 11 | –

Continued, values first:

Row | IC50 (cdk5/p25) [nM] | IC50 (GSK3β) [nM] | melting point [°C] | SMILES
8 | – | – | 201 to 202 | CC1CCn2c(nc(-c3ccncc3)c(F)c2=O)N1CC(=O)c1ccccc1 (racemic) [Table 3 Compound 18, 3-Fluoro-8-methyl-9-(2-oxo-2-phenyl-ethyl)-2-(pyridin-4-yl)-6,7,8,9-tetrahydro-pyrimido[1,2-a]pyrimidin-4-one]
9 | 344 | 4 | – | CC1CCn2c(nc(-c3ccncc3)cc2=O)N1C[C@@H](O)c1ccccc1 (mixture of isomers) [Table 3 Compound 7, 9-[2(S)-Hydroxy-2-phenyl-ethyl]-8-methyl-2-(pyridin-4-yl)-6,7,8,9-tetrahydro-pyrimido[1,2-a]pyrimidin-4-one]
10 | > 1000 | 6 | – | CO[C@H](CN1CCCn2c1nc(-c1ccncc1)c(F)c2=O)c1ccccc1 [Table 1 Compound 45, 9-(2(S)-Methoxy-2-phenyl-ethyl)-3-fluoro-2-(pyridin-4-yl)-6,7,8,9-tetrahydro-4H-pyrimido[1,2-a]pyrimidin-4-one]
11 | > 1000 | 1 | – | Cc1ccc([C@H](O)CN2c3nc(-c4ccncc4)cc(=O)n3CCC2(C)C)cc1 [Table 3 Compound 32, 9-(2(S)-Hydroxy-2-p-tolyl-ethyl)-8,8-dimethyl-2-(pyridin-4-yl)-6,7,8,9-tetrahydro-pyrimido[1,2-a]pyrimidin-4-one]
